Targets include CDK5 CDK5R1 p35 (human) (UniProt Q00535+Q15078); HCK (human) (UniProt P08631); INSR (human) (UniProt P06213); STK33 (human) (UniProt Q9BYT3); CDK9 CCNK (human) (UniProt O75909+P50750); CDK9 CCNT1 (human) (UniProt P50750+O60563); MAP3K5 (human) (UniProt Q99683).
Holding throughout (test): radiometric filter-binding kinase assay, Kinase HotSpot
Conditions in all cases: compound 0.5 µM; ATP 10 µM

In general, residual activity refers to the activity still measured, relative to the control. A low value points to a large loss of activity.

HCK (human), sequence (P08631 whole entry, looked up): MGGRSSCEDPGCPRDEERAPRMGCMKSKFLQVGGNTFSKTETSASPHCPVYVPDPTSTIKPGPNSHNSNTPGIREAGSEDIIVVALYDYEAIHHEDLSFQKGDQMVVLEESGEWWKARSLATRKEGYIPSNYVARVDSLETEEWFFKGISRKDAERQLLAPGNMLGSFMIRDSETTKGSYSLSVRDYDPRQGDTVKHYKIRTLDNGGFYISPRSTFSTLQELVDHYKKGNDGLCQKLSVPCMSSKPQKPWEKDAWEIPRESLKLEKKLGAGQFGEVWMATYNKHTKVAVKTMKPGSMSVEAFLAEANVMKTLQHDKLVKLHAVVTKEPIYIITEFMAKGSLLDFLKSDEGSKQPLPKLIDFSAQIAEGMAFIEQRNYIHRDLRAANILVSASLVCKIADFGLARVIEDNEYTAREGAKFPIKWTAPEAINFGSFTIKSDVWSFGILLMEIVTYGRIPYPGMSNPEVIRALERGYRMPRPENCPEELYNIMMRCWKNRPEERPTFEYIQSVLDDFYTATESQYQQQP
CDK9 CCNT1 (human), sequence (O60563 whole entry, looked up): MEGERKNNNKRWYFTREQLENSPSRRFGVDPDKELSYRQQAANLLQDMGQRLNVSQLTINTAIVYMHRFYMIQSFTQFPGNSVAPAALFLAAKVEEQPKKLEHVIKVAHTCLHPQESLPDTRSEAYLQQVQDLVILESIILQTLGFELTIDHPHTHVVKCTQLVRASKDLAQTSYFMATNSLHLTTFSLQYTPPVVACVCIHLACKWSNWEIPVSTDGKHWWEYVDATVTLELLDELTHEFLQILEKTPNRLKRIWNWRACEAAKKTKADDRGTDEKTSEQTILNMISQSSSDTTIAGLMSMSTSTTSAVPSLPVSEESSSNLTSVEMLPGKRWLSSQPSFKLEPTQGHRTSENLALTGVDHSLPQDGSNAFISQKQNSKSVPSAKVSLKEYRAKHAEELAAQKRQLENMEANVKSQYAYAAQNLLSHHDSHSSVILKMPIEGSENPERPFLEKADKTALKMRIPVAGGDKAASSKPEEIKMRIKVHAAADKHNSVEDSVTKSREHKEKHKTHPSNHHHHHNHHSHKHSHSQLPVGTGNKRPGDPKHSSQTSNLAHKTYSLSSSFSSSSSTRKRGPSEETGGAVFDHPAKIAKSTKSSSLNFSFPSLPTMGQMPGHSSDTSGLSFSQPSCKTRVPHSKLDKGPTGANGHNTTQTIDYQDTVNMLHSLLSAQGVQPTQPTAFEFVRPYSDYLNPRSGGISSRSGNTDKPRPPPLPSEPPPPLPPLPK
CDK9 CCNT1 (human), sequence (P50750 whole entry, looked up): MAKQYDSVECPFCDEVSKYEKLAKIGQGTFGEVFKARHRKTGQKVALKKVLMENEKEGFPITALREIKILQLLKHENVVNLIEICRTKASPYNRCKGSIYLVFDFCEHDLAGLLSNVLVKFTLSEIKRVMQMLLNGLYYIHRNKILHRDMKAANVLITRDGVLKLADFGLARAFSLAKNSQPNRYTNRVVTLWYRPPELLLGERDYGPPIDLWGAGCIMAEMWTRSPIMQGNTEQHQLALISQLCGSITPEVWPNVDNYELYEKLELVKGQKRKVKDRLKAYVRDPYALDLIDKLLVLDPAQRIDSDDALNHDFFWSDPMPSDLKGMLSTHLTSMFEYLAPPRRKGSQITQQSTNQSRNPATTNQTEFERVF
CDK9 CCNK (human), sequence (O75909 whole entry, looked up): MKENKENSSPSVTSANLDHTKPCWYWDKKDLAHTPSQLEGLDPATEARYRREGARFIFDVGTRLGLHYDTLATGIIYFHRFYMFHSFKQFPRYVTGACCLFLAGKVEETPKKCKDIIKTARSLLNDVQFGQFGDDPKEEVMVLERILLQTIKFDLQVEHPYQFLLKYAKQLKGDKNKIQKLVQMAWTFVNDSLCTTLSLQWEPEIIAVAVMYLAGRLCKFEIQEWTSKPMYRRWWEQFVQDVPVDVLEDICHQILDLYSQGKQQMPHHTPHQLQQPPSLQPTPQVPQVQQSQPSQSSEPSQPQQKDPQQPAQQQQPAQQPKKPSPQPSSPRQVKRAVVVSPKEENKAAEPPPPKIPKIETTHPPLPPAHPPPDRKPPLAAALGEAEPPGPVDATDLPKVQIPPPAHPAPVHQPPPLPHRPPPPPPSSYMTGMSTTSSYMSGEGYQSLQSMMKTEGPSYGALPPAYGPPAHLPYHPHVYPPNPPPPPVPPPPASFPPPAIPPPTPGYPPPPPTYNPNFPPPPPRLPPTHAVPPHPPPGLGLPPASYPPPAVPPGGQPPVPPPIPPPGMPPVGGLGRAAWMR
CDK9 CCNK (human), sequence (P50750 whole entry, looked up): as the sequence (P50750 whole entry, looked up) above
STK33 (human), sequence (Q9BYT3 whole entry, looked up): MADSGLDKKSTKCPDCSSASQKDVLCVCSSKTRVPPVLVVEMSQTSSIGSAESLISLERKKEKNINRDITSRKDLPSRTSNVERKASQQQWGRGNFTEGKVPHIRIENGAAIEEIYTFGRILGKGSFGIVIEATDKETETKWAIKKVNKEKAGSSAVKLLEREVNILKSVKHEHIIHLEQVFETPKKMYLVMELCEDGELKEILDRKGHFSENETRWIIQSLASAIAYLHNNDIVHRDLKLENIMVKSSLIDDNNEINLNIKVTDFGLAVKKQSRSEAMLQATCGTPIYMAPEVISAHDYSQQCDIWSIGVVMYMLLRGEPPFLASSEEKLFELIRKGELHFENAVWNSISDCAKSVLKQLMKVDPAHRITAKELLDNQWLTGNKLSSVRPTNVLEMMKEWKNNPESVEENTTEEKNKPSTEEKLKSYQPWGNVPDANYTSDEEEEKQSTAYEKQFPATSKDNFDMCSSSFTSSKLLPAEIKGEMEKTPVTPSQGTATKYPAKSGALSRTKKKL
MAP3K5 (human), sequence (Q99683 whole entry, looked up): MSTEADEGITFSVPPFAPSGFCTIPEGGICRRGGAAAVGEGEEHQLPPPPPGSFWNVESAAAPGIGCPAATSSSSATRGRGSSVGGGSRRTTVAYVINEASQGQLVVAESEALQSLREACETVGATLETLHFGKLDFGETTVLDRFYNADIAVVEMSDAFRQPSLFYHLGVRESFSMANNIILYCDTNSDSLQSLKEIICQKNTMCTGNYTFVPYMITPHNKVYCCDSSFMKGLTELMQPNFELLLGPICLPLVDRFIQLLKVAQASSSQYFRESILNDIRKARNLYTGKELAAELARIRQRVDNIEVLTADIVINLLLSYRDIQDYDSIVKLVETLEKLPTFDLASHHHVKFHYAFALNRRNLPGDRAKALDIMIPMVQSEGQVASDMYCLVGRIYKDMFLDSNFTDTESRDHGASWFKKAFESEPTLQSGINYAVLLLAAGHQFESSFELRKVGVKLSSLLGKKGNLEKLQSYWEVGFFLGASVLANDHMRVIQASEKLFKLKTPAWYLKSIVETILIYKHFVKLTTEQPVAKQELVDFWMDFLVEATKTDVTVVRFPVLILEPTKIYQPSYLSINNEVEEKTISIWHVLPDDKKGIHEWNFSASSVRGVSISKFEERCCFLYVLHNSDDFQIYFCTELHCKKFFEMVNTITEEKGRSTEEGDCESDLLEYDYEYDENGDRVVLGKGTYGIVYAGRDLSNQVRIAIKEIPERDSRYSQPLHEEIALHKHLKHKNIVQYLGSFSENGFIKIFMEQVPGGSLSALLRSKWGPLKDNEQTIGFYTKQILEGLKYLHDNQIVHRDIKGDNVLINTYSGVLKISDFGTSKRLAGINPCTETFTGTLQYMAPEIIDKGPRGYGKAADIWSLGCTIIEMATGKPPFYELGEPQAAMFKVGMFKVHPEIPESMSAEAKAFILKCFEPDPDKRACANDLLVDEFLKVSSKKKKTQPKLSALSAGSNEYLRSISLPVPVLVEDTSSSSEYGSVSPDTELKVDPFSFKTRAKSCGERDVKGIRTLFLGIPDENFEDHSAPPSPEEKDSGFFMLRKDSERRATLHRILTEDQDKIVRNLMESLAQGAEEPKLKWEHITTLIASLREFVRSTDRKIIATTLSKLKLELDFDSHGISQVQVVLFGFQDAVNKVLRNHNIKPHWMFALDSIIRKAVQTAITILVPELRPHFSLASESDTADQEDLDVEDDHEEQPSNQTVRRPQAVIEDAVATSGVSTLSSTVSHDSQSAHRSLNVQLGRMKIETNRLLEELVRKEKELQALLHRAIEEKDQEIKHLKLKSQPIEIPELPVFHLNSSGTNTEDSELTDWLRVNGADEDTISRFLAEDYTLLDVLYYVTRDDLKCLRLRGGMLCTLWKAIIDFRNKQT

For `CN[C@@H]1C[C@H]2O[C@@](C)([C@@H]1OC)n1c3ccccc3c3c4c(c5c6ccccc6n2c5c31)C(=O)NC4`, the residual activity is 1.92% at CDK5 CDK5R1 p35 (human); 3.26% on HCK (human); 3.14% on INSR (human); 10.7% on STK33 (human); 9.24% on CDK9 CCNK (human); 1.38% at CDK9 CCNT1 (human). The residual activity on MAP3K5 (human) amounted to 4.72%.
